Where two headings read alike, the source gives them in different places.
What was measured:
[1] = system: patients with Wilson disease (WD); assay type: in vivo
From the text: Adverse events were reported by the patient (or, when appropriate, by a caregiver, surrogate, or the patient's legally authorized representative). The Investigator and any qualified designees were responsible for detecting, documenting, and recording events that meet the definition of an AE or SAE and remain responsible for following up AEs that were serious, considered related to the study intervention or study procedures, or that caused the patient to discontinue the study.
The safety analysis was performed on the Safety Analysis Set. This dataset includes all patients who received at least 1 dose of randomized treatment. Patients were summarized according to the treatment actually received.
Acute worsening of neurologic symptoms typically within 6 months of start of therapy is a known complication associated with chelation therapy for WD. […] Neurologic AESI for Study 301 were considered as all AEs in the Medical Dictionary for Regulatory Activities (MedDRA) System Organ Class (SOC) “Nervous system disorders” or any other AE judged by the Investigator as an AESI.

[2] = system: patients with Wilson disease (WD); assay: UWDRS Part III minimal clinically important difference (MCID) responders and net promoter score; assay type: in vivo, human
From the text: To calculate net promoter scores, minimal clinically important differences (MCID) were first defined.
Therefore, distribution-based methods were used to compute MCID threshold, half standard deviation (SD), and standard error of measurement (SEM) for the full Study 301 population and the Subpart E population. […] The difference between those two proportions represented the “net promoter score.”

participants with WD = settings: for Daily Net Copper Balance, Change from Baseline, Mean: Table 10; for Decrease from Baseline in Average Daily Net Copper Balance, Mean (SD): Table 13
Description: Study 204 is registered with ClinicalTrials.gov, number NCT04573309, and is described in Example 1 of U.S. Provisional Patent Application No. 63/237,120, filed Aug. 25, 2021, and incorporated by reference herein. […] The participants remained on a Cu-controlled diet, and Cu and Mo balance were measured on all intake (i.e., investigational agent, food and fluids) and all output (urine and feces). The Cu and Mo concentration of each sample was determined by inductively coupled plasma mass spectrometry (ICP-MS). Copper and Mo content of all intake and output was calculated based on the volume or weight of intake and output and the concentration of representative samples.
Collection periods for feces and urine varied in duration from 3 to 15 days to support assessment of both Cu and Mo balance before and at steady state for both 15 mg and 30 mg. Equilibration periods on Cu/Mo-controlled diets were a minimum of 48 hours. Copper balance was calculated as the mean daily Cu balance over each of the 4 collection periods. The interpretation of Cu balance was based on the criteria previously established when undertaking Cu balance studies with zinc treatment.
These participants had all intake (food and drink) and output (urine and feces) collected from Day −4 through Day −1 (baseline), from Day 1 through Day 8, and Day 25 through Day 39.

[3] = Primary Evaluation Period, 48 Weeks
[4] = Days 1-8 (Accumulation 15 mg/day)
[5] = Days 25-28 (Steady State 15 mg/day)
[6] = Days 31-35 (Accumulation 30 mg/day)
[7] = Days 36-39 (Steady State 30 mg/day)

## bis-choline tetrathiomolybdate [TTM]
[1]; Primary Evaluation Period
  AEs in SOC Ear and labyrinth disorders: 5.1%
  AEs in SOC Hepatobiliary disorders: 6.6%
  AEs in SOC Investigations: 33.6%
  AEs in SOC Psychiatric disorders: 19.0%
  AEs in SOC Skin and subcutaneous tissue disorders: 21.9%
  incidence of SAEs, Nervous system disorders: 4.4%
  incidence of headache: 8.0%
  incidence of tremor: 7.3%
  participants with highest severity Grade 1 AEs, Nervous system disorders: 24.1%
  participants with highest severity Grade 2 AEs, Nervous system disorders: 13.9%
[1]; [3]
  Alanine aminotransferase increased AE, % participants: 14.6%
  Alanine aminotransferase increased AE, N participants: 20
  Aspartate aminotransferase increased AE, % participants: 2.9%
  Aspartate aminotransferase increased AE, N participants: 4
  Ear and labyrinth disorders (SOC) AE, % participants: 5.1%
  Ear and labyrinth disorders (SOC) AE, N participants: 7
  Fatigue AE, % participants: 9.5%
  Fatigue AE, N participants: 13
  Gamma-glutamyltransferase increased AE, % participants: 2.2%
  Gamma-glutamyltransferase increased AE, N participants: 3
  Hepatic enzyme increased AE, % participants: 2.2%
  Hepatic enzyme increased AE, N participants: 3
  Hepatobiliary disorders (SOC) AE, % participants: 6.6%
  Hepatobiliary disorders (SOC) AE, N participants: 9
  Investigations (SOC) AE, % participants: 33.6%
  Investigations (SOC) AE, N participants: 46
  Nervous system disorders (SOC) AE, % participants: 34.3%
  Nervous system disorders (SOC) AE, N participants: 47
  Neutrophil count decreased AE, % participants: 1.5%
  Neutrophil count decreased AE, N participants: 2
  Pruritus AE, % participants: 3.6%
  Pruritus AE, N participants: 5
  Psychiatric disorders (SOC) AE, % participants: 19.0%
  Psychiatric disorders (SOC) AE, N participants: 26
  Pyrexia AE, % participants: 5.8%
  Pyrexia AE, N participants: 8
  Rash AE, % participants: 6.6%
  Rash AE, N participants: 9
  Skin and subcutaneous tissue disorders (SOC) AE, % participants: 21.9%
  Skin and subcutaneous tissue disorders (SOC) AE, N participants: 30
  incidence of AEs in SOC Nervous system disorders: 34.3%
[1]; cohort 1 incomplete response or intolerant
  patients with neurologic AEs: 31.8%
[1]; seven events in 5 participants
  participants with neurologic AESI in SOC Psychiatric disorders: 3.6%
[2]; Study 301, by 48 weeks
  patients improved by ≥5 points in UWDRS Part III: 44.8%
[2]; improving minus worsening
  UWDRS Part III SD MCID Achievers, Net Promoter Score: 16%
  UWDRS Part III SE MCID Achievers, Net Promoter Score: 20%
[2]; in vivo
  UWDRS Part III SD MCID Achievers, Improving: 22%
  UWDRS Part III SD MCID Achievers, Worsening: 6%
  UWDRS Part III SE MCID Achievers, Improving: 28%
  UWDRS Part III SE MCID Achievers, Worsening: 8%
[2]; incomplete and/or intolerant subgroup, 48 weeks
  patients improved at 4-point change threshold in UWDRS Part III: 43.1%
Participants with WD; [4]
  Daily Net Copper Balance, Change from Baseline, Median: -0.4291 mg
  Daily Net Copper Balance, Value, Median: 0.6678 mg
  Increase from Baseline in Average Daily Fecal Copper Excretion, Mean: 0.3278 mg
  Increase from Baseline in Average Daily Urine Copper Excretion, Mean: -0.0108 mg
  Daily Net Copper Balance, Change from Baseline, Mean: -0.4848 mg
  Decrease from Baseline in Average Daily Net Copper Balance, Mean (SD): −0.4848(0.119) mg
Participants with WD; Days 1-8 (Accumulation 15 mg/day), N=3
  Daily Net Copper Balance, Value, Mean: 0.7654 mg
Participants with WD; Days 1-39
  Decrease from Baseline in Average Daily Net Copper Balance, Mean (SD): −0.448 (0.1469) mg
Participants with WD; [5]
  Daily Net Copper Balance, Change from Baseline, Median: -0.1459 mg
  Daily Net Copper Balance, Value, Mean: 0.7638 mg
  Daily Net Copper Balance, Value, Median: 1.1434 mg
  Increase from Baseline in Average Daily Fecal Copper Excretion, Mean: 0.4931 mg
  Increase from Baseline in Average Daily Urine Copper Excretion, Mean: 0.1042 mg
  Daily Net Copper Balance, Change from Baseline, Mean: -0.4865 mg
  Decrease from Baseline in Average Daily Net Copper Balance, Mean (SD): −0.6381 (0.7673) mg
Participants with WD; [6]
  Daily Net Copper Balance, Change from Baseline, Median: -0.3707 mg
  Daily Net Copper Balance, Value, Mean: 0.8577 mg
  Daily Net Copper Balance, Value, Median: 0.8312 mg
  Increase from Baseline in Average Daily Fecal Copper Excretion, Mean: 0.3879 mg
  Increase from Baseline in Average Daily Urine Copper Excretion, Mean: 0.0744 mg
  Daily Net Copper Balance, Change from Baseline, Mean: -0.3925 mg
  Decrease from Baseline in Average Daily Net Copper Balance, Mean (SD): −0.3925 (0.05781) mg
Participants with WD; [7]
  Daily Net Copper Balance, Change from Baseline, Median: -0.4225 mg
  Daily Net Copper Balance, Value, Mean: 0.8582 mg
  Daily Net Copper Balance, Value, Median: 0.7986 mg
  Increase from Baseline in Average Daily Fecal Copper Excretion, Mean: 0.0899 mg
  Increase from Baseline in Average Daily Urine Copper Excretion, Mean: 0.1042 mg
  Daily Net Copper Balance, Change from Baseline, Mean: -0.3921 mg
  Decrease from Baseline in Average Daily Net Copper Balance, Mean (SD): −0.2765 (0.3138) mg

Reference: patent US20260216238A1, “TETRATHIOMOLYBDIC ACID FOR USE IN TREATING COPPER METABOLISM-ASSOCIATED DISEASES OR DISORDERS (WILSON DISEASE)” (Alexion Pharmaceuticals, Inc., priority 2023, published 2026)
